Test results as given in paper PMC9598407, “Identification of Staphylococcus aureus Penicillin Binding Protein 4 (PBP4) Inhibitors” (Antibiotics, 2022).
Values after ≈ are worked out from the molar mass of the structure shown.

What was measured:
[1] = test system: S. aureus USA300; assay: Minimum inhibitory concentration (MIC) testing, strain USA300; type: cell-based, Staphylococcus aureus; conditions: for MIC: Staphylococcus aureus, USA300, read-out: Minimum inhibitory concentration; for Minimum inhibitory concentration: strain USA300
Experimental: (§1) The approach used was to initially search for compounds that reverse the antibiotic resistance profile of wild type cells to that of a pbp4 mutant. To define screening conditions three strains were employed, a wild type USA300 MRSA strain, an isogenic pbp4 deletion strain, and a complemented strain harboring a plasmid wildtype pbp4 copy. The antibiotic susceptibility profile of each strain was measured to determine the magnitude with which PBP4 affects resistance to various antibiotics (Table 1). […]. We anticipated that the greater dynamic range of the latter could provide a means to reliably screen for agents that inhibit PBP4 function. […].
(§2) S. aureus strain USA300 is a predominant cause of U.S. community-associated MRSA infections, whereas strain COL is a commonly studied hospital-associated MRSA strain. The S. aureus USA300 pbp4-null strain (USA300Δpbp4) and PBP4 complementation strain (USA300∆pbp4 pPBP4) have been previously described. Strain COLn is a laboratory derived tetracycline susceptible derivative of COL, whereas COLnex is a methicillin susceptible COLn derivative that has been cured of SCCmec thereby removing the mecA, which encodes PBP2a, and has been previously described. Strain CRB is a well-studied MRSA COLnex derivative that contains two amino acid substitutions (E183A and F241R) near the PBP4 active site and a 36-bp duplication 290-bp upstream of the pbp4 open reading frame leading to 20–40-fold overexpression of the gene. All strains were grown in Mueller Hinton (MH) broth at 37 °C, as indicated. Penicillin, streptomycin, ciprofloxacin, mupirocin, meropenem, and mitomycin C were purchased from Fisher Scientific (Waltham, MA, USA), whereas ceftobiprole was obtained from MedChemExpress LLC (Monmouth Junction, NJ, USA). The 30,000-member […]-EXP small molecule chemical library (Blocks 3–5) used in these studies was purchased from ChemBridge Corporation (San Diego, CA, USA).

[2] = test system: S. aureus USA300∆pbp4; assay: MIC testing, strain USA300∆pbp4; type: cell-based, Staphylococcus aureus; conditions: for MIC: Staphylococcus aureus, USA300, read-out: Minimum inhibitory concentration
Experimental: as §1, §2

[3] = test system: S. aureus COLnex; assay: MIC testing, strain COLnex; type: cell-based; conditions: Staphylococcus aureus, read-out: Minimum inhibitory concentration
Experimental: (§3) To further evaluate their potential PBP4 inhibitor activity, prioritized compounds were tested for their ability to reverse PBP4 mediated antibiotic resistance in another S. aureus background using three isogenic strains that became available during our study (generous gift from Dr. S. Chatterjee; University of Maryland). These strains included: (1) COLnex, which is a methicillin susceptible strain, (2) CRB, a methicillin/ceftobiprole-resistant strain of COLnex that overproduces PBP4, and (3) CRB∆pbp4, a methicillin susceptible strain of CRB lacking the pbp4 gene.
as §2

[4] = test system: S. aureus CRB; assay: MIC testing, strain CRB (PBP4 overproducer); type: cell-based, Staphylococcus aureus; conditions: for MIC: Staphylococcus aureus, read-out: Minimum inhibitory concentration, strain CRB
Experimental: as §3, §2

[5] = test system: S. aureus CRB∆pbp4; assay: MIC testing, strain CRB∆pbp4; type: cell-based; conditions: Staphylococcus aureus, read-out: Minimum inhibitory concentration
Experimental: as §3, §2

[6] = molecular target: recombinant Bacillus subtilis PBP4 (Bacillus subtilis, UniProt P40750); assay: BOCILLIN FL fluorescence polarization displacement assay, PBP4; type: binding; conditions: for Effect of preincubation on BOCILLIN FL binding to PBP4 (fluorescence polarization): 50 µM, 1 µM PBP4
Sequence of recombinant Bacillus subtilis PBP4 (P40750 22-624): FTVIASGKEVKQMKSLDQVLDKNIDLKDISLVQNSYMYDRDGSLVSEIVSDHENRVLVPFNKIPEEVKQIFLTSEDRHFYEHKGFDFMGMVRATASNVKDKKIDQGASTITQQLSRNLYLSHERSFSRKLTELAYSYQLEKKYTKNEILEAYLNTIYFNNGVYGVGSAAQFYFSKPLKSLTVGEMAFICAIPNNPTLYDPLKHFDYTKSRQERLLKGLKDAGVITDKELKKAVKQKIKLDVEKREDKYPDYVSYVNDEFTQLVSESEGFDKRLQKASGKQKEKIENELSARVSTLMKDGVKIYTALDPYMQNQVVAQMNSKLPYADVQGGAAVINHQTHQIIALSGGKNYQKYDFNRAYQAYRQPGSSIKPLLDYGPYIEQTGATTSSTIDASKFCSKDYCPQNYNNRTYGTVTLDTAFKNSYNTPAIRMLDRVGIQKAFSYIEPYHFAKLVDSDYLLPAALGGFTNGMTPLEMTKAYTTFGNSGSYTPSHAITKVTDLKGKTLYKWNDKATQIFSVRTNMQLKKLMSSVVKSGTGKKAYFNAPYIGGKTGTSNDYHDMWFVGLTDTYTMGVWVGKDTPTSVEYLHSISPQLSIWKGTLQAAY
Experimental: To more directly evaluate whether 9314848 is likely to affect PBP4 function, the compound’s ability to bind recombinant PBP4 was measured using BOCILLIN FL fluorescence polarization displacement assays. The premise for the assay is that the fluorescence polarization of the fluorescently labeled β-lactam, penicillin V (BOCILLIN FL), will increase upon binding to its cognate target (i.e., PBP4). Further, compounds that bind PBP4 and inhibit its function would impede BOCILLIN FL binding thereby allowing us to assess the protein binding affinity of 9314848 using a simple fluorescence reduction assay.
To determine whether the assay is amenable to measuring the binding properties of a compound that is known to bind PBP4 vs. a compound that is not expected to bind the protein we performed fluorescence polarization assays in which PBP4 was preincubated with either the β-lactam ampicillin, or the aminoglycoside kanamycin.
A dose response study was conducted (Figure 4B) in which PBP4 was preincubated with 0, 3.125, 6.25, 12.5, 25, or 50 µM of ampicillin, kanamycin, or 9314848.
First, fluorescence polarization assays were performed as previously described, but with minor modifications. Briefly, the indicated amount of the putative PBP4 inhibitor or control antibiotic was incubated with 1 µM recombinant B. subtilis PBP4 or S. aureus PBP2a in potassium phosphate buffer (40 mM K2HPO4 and 10 mM KH2PO4) for 1 h in black 96-well microtiter plates (Corning Life Sciences, Corning, NY, USA). Following incubation, 1 µM (final concentration) BOCILLIN FL penicillin was added, and the mixture was incubated for 30 min. BOCILLIN FL fluorescence polarization was measured at (495 nm excitation and 545 nm emission) in a SpectraMax M5 multimode plate reader (Molecular Devices, San Jose, CA, USA). […] The resulting data were plotted as percentage BOCILLIN FL binding inhibition = (T/U) × 100; T = FL polarization of ((PBP4+ BOCILLIN FL) − (PBP4+ BOCILLIN FL + inhibitor compound)), U = FL polarization of ((PBP4 + BOCILLIN FL) − (BOCILLIN FL)). Second, gel electrophoresis and fluorescence detection was used to measure BOCILLIN FL labeling of PBP4 treated with the known PBP4 inhibitor cefoxitin (positive control), kanamycin (negative control) or 9314848 (test compound), as previously described but with minor modifications. Briefly, 1 µM of recombinant PBP4 was mixed with 0, 50, 500, 2000, or 5000 µM 9314848 or control antibiotic in 50 mM phosphate buffer (pH 7.4) and incubated at 37 °C for 30 min. Next 40 μM of BOCILLIN FL was added to the reaction mixture and incubated for an additional 30 min at 37 °C. Reactions were stopped by adding 5× SDS-PAGE gel loading dye, heated at 100 °C for 3 min and separated by electrophoresis in 12% SDS-PAGE (2 h, 120 Volts). BOCILLIN FL labeled PBP4 was imaged at λ = 365 nm using a BioRad Gel Doc EZ Imaging system and the gel was then subsequently stained with Bio-safe Coomassie Brilliant Blue stain (BioRad, Hercules, CA, USA) to measure the amount of protein present in each reaction condition and analyzed using NIH-ImageJ software. The percent BOCILLIN FL binding was calculated by first normalizing the protein present in each reaction condition to that of untreated control and subsequently applying each reaction’s protein normalization factor to each reaction’s fluorescent signal. The percentage BOCILLIN FL binding inhibition was then calculated as the normalized band intensity of antibiotic/compound treated sample as compared to the control sample (PBP4 + BOCILLIN FL in the absence of compound).

[7] = molecular target: recombinant PBP4 (Bacillus subtilis, UniProt P40750); assay: Gel electrophoresis BOCILLIN FL labeling of PBP4; type: binding; conditions: for Effect of preincubation on PBP4 BOCILLIN FL labeling (gel-based): 50-5000 µM, kanamycin 2000 µM or 5000 µM; for PBP4 BOCILLIN FL binding inhibition (gel-based) at low concentration: concentrations below 50 µM
Sequence of recombinant PBP4 (P40750 22-624): as above
Experimental: A second, yet lower resolution, approach was used to verify the impact of 9314848 on PBP4 substrate binding in which the protein was preincubated with compound or control antibiotics then labeled with the BOCILLIN FL and resulting fluorescent labeled protein was visualized following gel electrophoresis.
The ability of putative PBP4 inhibitors to impact the active site of recombinant PBP4 was assessed using two previously established BOCILLIN-FL Penicillin (Penicillin V conjugated to BODIPY fluorescent dye) binding assays. First, fluorescence polarization assays were performed as previously described, but with minor modifications. Briefly, the indicated amount of the putative PBP4 inhibitor or control antibiotic was incubated with 1 µM recombinant B. subtilis PBP4 or S. aureus PBP2a in potassium phosphate buffer (40 mM K2HPO4 and 10 mM KH2PO4) for 1 h in black 96-well microtiter plates (Corning Life Sciences, Corning, NY, USA). Following incubation, 1 µM (final concentration) BOCILLIN FL penicillin was added, and the mixture was incubated for 30 min. BOCILLIN FL fluorescence polarization was measured at (495 nm excitation and 545 nm emission) in a SpectraMax M5 multimode plate reader (Molecular Devices, San Jose, CA, USA). All assays were repeated at least 8 times, averaged, and values falling outside of 2 standard deviations were considered outliers. The resulting data were plotted as percentage BOCILLIN FL binding inhibition = (T/U) × 100; T = FL polarization of ((PBP4+ BOCILLIN FL) − (PBP4+ BOCILLIN FL + inhibitor compound)), U = FL polarization of ((PBP4 + BOCILLIN FL) − (BOCILLIN FL)). Second, gel electrophoresis and fluorescence detection was used to measure BOCILLIN FL labeling of PBP4 treated with the known PBP4 inhibitor cefoxitin (positive control), kanamycin (negative control) or 9314848 (test compound), as previously described but with minor modifications. Briefly, 1 µM of recombinant PBP4 was mixed with 0, 50, 500, 2000, or 5000 µM 9314848 or control antibiotic in 50 mM phosphate buffer (pH 7.4) and incubated at 37 °C for 30 min. Next 40 μM of BOCILLIN FL was added to the reaction mixture and incubated for an additional 30 min at 37 °C. Reactions were stopped by adding 5× SDS-PAGE gel loading dye, heated at 100 °C for 3 min and separated by electrophoresis in 12% SDS-PAGE (2 h, 120 Volts). BOCILLIN FL labeled PBP4 was imaged at λ = 365 nm using a BioRad Gel Doc EZ Imaging system and the gel was then subsequently stained with Bio-safe Coomassie Brilliant Blue stain (BioRad, Hercules, CA, USA) to measure the amount of protein present in each reaction condition and analyzed using NIH-ImageJ software. The percent BOCILLIN FL binding was calculated by first normalizing the protein present in each reaction condition to that of untreated control and subsequently applying each reaction’s protein normalization factor to each reaction’s fluorescent signal. The percentage BOCILLIN FL binding inhibition was then calculated as the normalized band intensity of antibiotic/compound treated sample as compared to the control sample (PBP4 + BOCILLIN FL in the absence of compound).

[8] = test system: S. aureus USA300∆pbp4 pPBP4; assay: microbe, parasite or virus in culture; type: cell-based; conditions: Staphylococcus aureus, USA300, read-out: Minimum inhibitory concentration

Row | Molecule | MIC [1] [µg/mL] | MIC [2] [µg/mL] | MIC [3] [µg/mL] | MIC [4] [µg/mL] | MIC [5] [µg/mL] | Effect of preincubation on PBP4 BOCILLIN FL labeling (gel-based) [7] | MIC [8] [µg/mL] | other results
1 | O=C(O)c1cn(C2CC2)c2cc(N3CCNCC3)c(F)cc2c1=O [CIP, ciprofloxacin] | 4 (≈ 12.1 µM) | 1 (≈ 3.02 µM) | 0.25 (≈ 0.754 µM) | 0.5 (≈ 1.51 µM) | 0.25 (≈ 0.754 µM) |  |  | Fold increase in resistance provided by PBP4 ([1]; USA300 versus USA300∆pbp4 MIC): ~ 4 fold; Minimum inhibitory concentration [1]: 4 µg/mL (≈ 12.1 µM); Minimum inhibitory concentration ([2]; strain USA300∆pbp4): 1 µg/mL (≈ 3.02 µM)
2 | CC1(C)S[C@@H]2[C@H](NC(=O)[C@H](N)c3ccccc3)C(=O)N2[C@H]1C(=O)O [ampicillin] |  |  |  |  |  | reduced the protein’s ability to bind the fluorescent substrate |  | Effect of preincubation on BOCILLIN FL binding to PBP4 (fluorescence polarization) [6]: limited BOCILLIN FL binding; PBP4 BOCILLIN FL binding inhibition (gel-based) at low concentration [7]: did not reproducibly demonstrate BOCILLIN FL binding inhibition
3 | CN(C)c1ccc(O)c2c1C[C@H]1C[C@H]3[C@H](N(C)C)C(O)=C(C(N)=O)C(=O)[C@@]3(O)C(O)=C1C2=O [MIN, minocycline] | 0.5 (≈ 1.09 µM) | 0.5 (≈ 1.09 µM) | 0.5 (≈ 1.09 µM) | 0.5 (≈ 1.09 µM) | 0.5 (≈ 1.09 µM) |  | 0.5 (≈ 1.09 µM) | 
4 | NC[C@H]1O[C@H](O[C@H]2[C@H](O)[C@@H](O[C@H]3O[C@H](CO)[C@@H](O)[C@H](N)[C@H]3O)[C@H](N)C[C@@H]2N)[C@H](N)C[C@@H]1O [TOB, tobramycin] | 1 (≈ 2.14 µM) | 1 (≈ 2.14 µM) | 0.06 (≈ 0.128 µM) | 0.06 (≈ 0.128 µM) | 0.06 (≈ 0.128 µM) |  | 1 (≈ 2.14 µM) | 
5 | C/C(=C\C(=O)OCCCCCCCCC(=O)O)C[C@@H]1OC[C@H](C[C@@H]2O[C@H]2[C@@H](C)[C@H](C)O)[C@@H](O)[C@H]1O [MUP, mupirocin] | 0.125 (≈ 0.25 µM) | 0.125 (≈ 0.25 µM) | 0.03 (≈ 0.0599 µM) | 0.03 (≈ 0.0599 µM) | 0.03 (≈ 0.0599 µM) |  | 0.125 (≈ 0.25 µM) | 
6 | CO[C@@]1(NC(=O)Cc2cccs2)C(=O)N2C(C(=O)O)=C(COC(N)=O)CS[C@@H]21 [cefoxitin] |  |  |  |  |  | reduced the protein’s ability to bind the fluorescent substrate |  | PBP4 BOCILLIN FL binding inhibition (gel-based) at low concentration [7]: did not reproducibly demonstrate BOCILLIN FL binding inhibition
7 | colistin |  |  |  |  |  |  |  | Minimum inhibitory concentration [1]: 128 µg/mL; Minimum inhibitory concentration ([4]; strain CRB): 128 µg/mL
8 | NC[C@H]1O[C@H](O[C@H]2[C@H](O)[C@@H](O[C@H]3O[C@H](CO)[C@@H](O)[C@H](N)[C@H]3O)[C@H](N)C[C@@H]2N)[C@H](O)[C@@H](O)[C@@H]1O [kanamycin] |  |  |  |  |  | did not significantly impact |  | PBP4 BOCILLIN FL binding inhibition, dose response ([6]; 0, 3.125, 6.25, 12.5, 25, or 50 µM): no inhibitory effect; Effect of preincubation on BOCILLIN FL binding to PBP4 (fluorescence polarization) [6]: had no impact on BOCILLIN FL binding
